Legend:
[1] = biological target: T1, rat lung glucocorticoid receptor (Rattus norvegicus, UniProt P06536); assay: Receptor binding studies ([3H]triamcinolone acetonide displacement); parameters: Receptor binding affinity: scale not given here; settings: for RBA: further receptor binding studies (Table X), dexamethasone = 100, * mean ± SE of 3-5 results; for IC50: rat lung cytosol, 10 nM [3H]triamcinolone acetonide, 2 h, 24° C., read-out: IC50; for IC50 / Relative binding affinity (RBA): with Δ1-cortienic acid; for Relative binding affinity (RBA): with respect to dexamethasone (RBA = 100)
T1 construct: Immediately after resection of the lungs, the tissue was frozen in ice; The cytosol was prepared; from tissue; host or cells: lung cytosol of adrenalectomized male Sprague-Dawley rats
T1 sequence (P06536 1-795): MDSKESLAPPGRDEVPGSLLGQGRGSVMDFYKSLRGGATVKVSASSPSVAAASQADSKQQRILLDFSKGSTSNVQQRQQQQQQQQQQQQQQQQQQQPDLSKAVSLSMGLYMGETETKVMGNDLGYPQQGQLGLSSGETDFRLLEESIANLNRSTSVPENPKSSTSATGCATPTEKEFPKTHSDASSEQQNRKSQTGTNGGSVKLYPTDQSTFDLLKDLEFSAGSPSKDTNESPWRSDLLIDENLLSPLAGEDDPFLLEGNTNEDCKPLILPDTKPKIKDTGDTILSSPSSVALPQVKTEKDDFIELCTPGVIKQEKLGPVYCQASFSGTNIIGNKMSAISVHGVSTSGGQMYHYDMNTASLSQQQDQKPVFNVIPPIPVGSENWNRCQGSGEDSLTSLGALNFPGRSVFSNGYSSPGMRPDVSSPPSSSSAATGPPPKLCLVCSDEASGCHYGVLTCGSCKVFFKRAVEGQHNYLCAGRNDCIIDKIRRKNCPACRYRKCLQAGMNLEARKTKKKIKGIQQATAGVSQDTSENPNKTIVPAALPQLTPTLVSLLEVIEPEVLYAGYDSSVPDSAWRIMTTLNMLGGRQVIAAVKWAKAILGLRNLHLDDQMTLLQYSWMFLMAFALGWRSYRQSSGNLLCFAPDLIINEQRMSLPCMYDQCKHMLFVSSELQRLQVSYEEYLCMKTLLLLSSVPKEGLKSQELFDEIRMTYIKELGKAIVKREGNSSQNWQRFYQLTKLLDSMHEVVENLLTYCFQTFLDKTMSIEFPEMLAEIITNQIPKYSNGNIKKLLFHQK
Method: Male Sprague-Dawley rats, each weighing 150 to 200 g, were used 6 days after adrenalectomy. Rats were sacrificed by decapitation. Immediately after resection of the lungs, the tissue was frozen in ice. […] Portions (5 ml) of the cytosol were frozen in liquid nitrogen and stored at -80° C.
The cytosol was thawed in a water bath and diluted with 1 part of incubation buffer containing a 15 mM concentration of diisopropyl fluorophosphate. […] After a 2 hour incubation period at room temperature (24° C.), the unbound steroid was removed by addition of a 2% suspension of activated charcoal in incubation buffer (400 μL). The mixture was incubated for 5 minutes at room temperature and then was centrifuged at about 10,000 g for 3 minutes in the microcentrifuge. The radioactivity (cpm) in the supernatant (400 μL) was determined by liquid scintillation counting.
The data is fitted to the following logistic function:
B=T-T * C^N /(C^N +IC50^N)+NS,
where B=CPM in the presence of competitor, T=CPM in the absence of competitor, C=competitor concentration, N=Hill slope factor, and NS=cpm under non-specific binding conditions.
For the representative compound of the invention B, receptor binding affinity was investigated with and without Δ^1 -cortienic acid in the incubation solution to study the effect of Δ^1 -cortienic acid on the receptor binding.
Further studies to evaluate the relative receptor binding affinities of compounds of the invention, other compounds of formula (VII) hereinabove and well-known anti-inflammatory steroids were undertaken, using the methods described in the RECEPTOR BINDING STUDIES set forth above. […] For comparison purposes, the following compounds having formula (VII) above were also tested: […]

[2] = system: forearms of a human volunteer; assay: Further human vasoconstriction testing, Method 1; assay type: in vivo; also: key: 0: normal skin; 1: slight pallor of indistinct outline; 2: pallor with at least two corners outlined; 3: even pallor with a clear outline of the application sites; 4: very intense pallor
Procedure, shortened: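 Each mixture, 50 μL in ethanol, was loaded onto circular 8 mm patches. Once the ethanol had evaporated, the patches were placed on a human volunteer's forearms under a water-impervious film for 3 hr. After the patches were removed, vasoconstriction was scored at intervals from 0 (normal skin) to 4 (very intense pallor). The same individual received all tests, run 2-4 times per compound.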

in vitro = in vitro ADME; settings: rat, lung cytosol
Method: To determine that the compounds of the invention can be stable during the incubation period, the test compounds A, B, C, and D were investigated for their stabilities at the incubation conditions, which are room temperature and 2 hours, for receptor binding studies. The frozen cytosol which was made for the receptor binding study was thawed in a water bath and diluted with 1 part of incubation buffer (10 mM Tris/HCl, 10 mM sodium molybdate, and 2 mM 1,4-dithiothreitol) containing a 15 mM concentration of enzyme inhibitor, diisopropyl fluorophosphate. Portions (560 μL) of the diluted cytosol were added to centrifuge tubes containing 80 μL portions of blank incubation buffer instead of volume of tracer ([^3 H]triamcinolone acetonide) which would be used in the receptor binding study (RBS), 80 μL of solution of a Δ^1 -cortienic acid (0.1 mM) in buffer (the final concentration of Δ^1 -cortienic acid in the incubation medium was […]), and 80 μL of 100,000 nM of concentrations of test compounds in ethanol to give a final concentration of 10,000 nM. This mixture was kept at room temperature for 2 hours. Samples of 0.1 mL were taken at appropriate time intervals (0, 0.5, 1, 1.5, 2 hours) and were mixed with 0.2 mL of acetonitrile containing 5% DMSO. Each mixture was centrifuged and the supernatant were injected in the HPLC.
Male Sprague-Dawley rats, each weighing 150 to 200 g, were used 6 days after adrenalectomy. Rats were sacrificed by decapitation. Immediately after resection of the lungs, the tissue was frozen in ice. The cytosol was prepared using a slight modification of a previously described method (Dahlberg, 1984); After addition of 6 volumes of ice-cold incubation buffer (10 mM Tris/HCl, 10 mM sodium molybdate, and 2 mM 1,4-dithiothreitol), the tissue was homogenized with the Virtis 45 homogenizer at full speed, for 4 periods of 10 seconds with a 10-second cooling period between each step. The homogenate was centrifuged at 35,000 g for 1 hour at 4° C. in a Beckman ultracentrifuge L8-70M equipped with a T170 rotor. Portions (5 ml) of the cytosol were frozen in liquid nitrogen and stored at -80° C.

[3] = 24 Hours, 1 hour re-occlusion at 20-21 hours, 0.01 mM
[4] = 24 Hours, 1 hour re-occlusion at 20-21 hours, 0.05 mM
[5] = 24 Hours, 1 hour re-occlusion at 20-21 hours, 0.1 mM
[6] = 24 Hours, 1 hour re-occlusion at 20-21 hours, 0.5 mM

Structure (SMILES)	RBA [1]	Vasoconstriction activity ([2]; 3 Hours, 0.01 mM)	Vasoconstriction activity ([2]; 3 Hours, 0.05 mM)	Vasoconstriction activity ([2]; 3 Hours, 0.1 mM)	Vasoconstriction activity ([2]; 3 Hours, 0.5 mM)	Vasoconstriction activity ([2]; 3 Hours, 1 mM)	Vasoconstriction activity ([2]; 3 Hours, 5 mM)	Vasoconstriction activity ([2]; 3 Hours, 10 mM)	Vasoconstriction activity ([2]; 20 Hours, 0.01 mM)	Vasoconstriction activity ([2]; 20 Hours, 0.05 mM)	Vasoconstriction activity ([2]; 20 Hours, 0.1 mM)	Vasoconstriction activity ([2]; 20 Hours, 0.5 mM)	Vasoconstriction activity ([2]; 20 Hours, 1 mM)	Vasoconstriction activity ([2]; 20 Hours, 5 mM)	Vasoconstriction activity ([2]; 20 Hours, 10 mM)	Vasoconstriction activity [2, 3]	Vasoconstriction activity [2, 4]	Vasoconstriction activity [2, 5]	Relative binding affinity (RBA) [1]	remaining at 2 h (in vitro) [%]	further results
CCCCC(=O)O[C@]1(C(=O)CO)[C@@H](C)C[C@H]2[C@@H]3CCC4=CC(=O)C=C[C@]4(C)[C@@]3(F)[C@@H](O)C[C@@]21C [Betamethasone 17-valerate, reference compound]	1742 ± 130	0	1	1	2	3	3	4	0	1	1	1	1	1	2	1	1	2			Vasoconstriction activity [2, 6]: 2
COC(=O)[C@@]1(OC(=O)C(Cl)Cl)CC[C@H]2[C@@H]3CCC4=CC(=O)C=C[C@]4(C)[C@H]3[C@@H](O)C[C@@]21C [Compound A, Methyl 17α-dichloroacetoxy-11β-hydroxyandrosta-1,4-dien-3-one-17β-carboxylate]	165							4							2				165	75	IC50 [1]: 0.0495 µM; remaining at 2 h, 10 µM (in vitro): 75.1%
CCOC(=O)[C@@]1(OC(=O)C(Cl)Cl)CC[C@H]2[C@@H]3CCC4=CC(=O)C=C[C@]4(C)[C@H]3[C@@H](O)C[C@@]21C [Compound B, Ethyl 17α-dichloroacetoxy-11β-hydroxyandrosta-1,4-dien-3-one-17β-carboxylate]	222 ± 16	0	1	1	2	3	3	4	0	0	1	1	1	1	2	1	1	2	204	75	Receptor binding affinity ([1]; With Δ1-cortienic acid (Table IX)): 204; Receptor binding affinity ([1]; Without Δ1-cortienic acid (Table IX)): 181; IC50 [1]: 0.0401 µM; Vasoconstriction activity [2, 6]: 2; remaining at 2 h, 10 µM (in vitro): 100%
CC(C)OC(=O)[C@@]1(OC(=O)C(Cl)Cl)CC[C@H]2[C@@H]3CCC4=CC(=O)C=C[C@]4(C)[C@H]3[C@@H](O)C[C@@]21C [Compound C, Isopropyl 17α-dichloroacetoxy-11β-hydroxyandrosta-1,4-dien-3-one-17β-carboxylate]	117							4							1				117	> 90	IC50 [1]: 0.0698 µM; remaining at 2 h, 10 µM (in vitro): 100%
C[C@]12C=CC(=O)C=C1CC[C@@H]1[C@@H]2[C@@H](O)C[C@@]2(C)[C@H]1CC[C@]2(OC(=O)C(Cl)Cl)C(=O)OCCl [Compound D, Chloromethyl 17α-dichloroacetoxy-11β-hydroxyandrosta-1,4-dien-3-one-17β-carboxylate]	684							4							1				684	70	IC50 [1]: 0.0119 µM; remaining at 2 h, 10 µM (in vitro): 70.6%
COC(=O)[C@@]1(OC(=O)C(Cl)Cl)[C@H](C)C[C@H]2[C@@H]3CCC4=CC(=O)C=C[C@]4(C)[C@@]3(F)[C@@H](O)C[C@@]21C [Compound I, methyl 17α-dichloroacetoxy-9α-fluoro-11β-hydroxy-16α-methylandrosta-1,4-dien-3-one-17β-carboxylate]	1745 ± 185	1	2	2	3	4	4	4	0	1	1	1	1	2		1	2	3	495	> 90	Vasoconstriction activity [2, 6]: 3
CCOC(=O)[C@@]1(OC(=O)C(Cl)Cl)[C@H](C)C[C@H]2[C@@H]3CCC4=CC(=O)C=C[C@]4(C)[C@@]3(F)[C@@H](O)C[C@@]21C [J, ethyl 17α-dichloroacetoxy-9α-fluoro-11β-hydroxy-16α-methylandrosta-1,4-dien-3-one-17β-carboxylate]	687 ± 49	0	1	2	2	3	3	4	0	0	0	1	1	1	2	1	1	2		> 90	Vasoconstriction activity [2, 6]: 2

Source: patent US5981517A, “Androstene derivatives” (priority 1997, dated 1999)
